Measurements from publication PMC10933344, “A lncRNA Dleu2-encoded peptide relieves autoimmunity by facilitating Smad3-mediated Treg induction” (EMBO Reports, 2024).
Where no end group is shown, it is not given here.

Key:
naive CD4+ T cells = test: In vitro iTreg differentiation (Foxp3+ of CD4+ cells); type: cell-based, mouse; settings: 10 μM, 72 h, n = 4
Procedure: C57BL/6 mice were sacrificed, and their spleens and peripheral lymph nodes were removed and gently dissociated into single-cell suspensions. Naive T cells were isolated using the Mouse CD4 Naive T Cell Isolation Kit (BioLegend, Stem Cell, or Thermo Fisher Scientific). Flow cytometry verified that the purity (CD4^+CD25^−CD62L^hi) of the enriched subpopulation was typically higher than 95%. All T cells were cultured using RPMI-1640 medium (Gibco) supplemented with 10% heat-inactivated fetal bovine serum (Gibco), 2 mM L-glutamine (Gibco), 10,000 units/mL of penicillin, 10,000 µg/mL of streptomycin, and 25 µg/mL of Gibco Amphotericin B (Thermo Fisher Scientific), 10 mM HEPES (Gibco), 1 mM Sodium pyruvate, MEM Non-Essential Amino Acids (Life Technologies) and 55 μM β-mercaptoethanol (Gibco). 0.1 million naive CD4^+ T cells were activated with plate-coated anti-CD3 (2.5 μg/ml; BD Biosciences) and soluble anti-CD28 (2 μg/ml; BD Biosciences) antibodies. The Th1 cell differentiation condition included recombinant murine (rm)IL-12 (10 ng/ml, PeproTech) and anti-IL-4 (10 μg/ml, BioLegend). The Th17 cell differentiation condition included rmIL-6 (10 ng/ml, PeproTech), rmTGF-β1 (5 ng/ml, PeproTech), rmIL-23 (10 ng/ml, PeproTech), anti-IL-4 (5 μg/ml, BioLegend) and anti-IFN-γ (10 μg/ml, eBioscience). The inducible T regulatory cell (iTreg) differentiation condition included rmTGF-β (5 ng/ml, PeproTech). 0.1 million naive CD8^+ T cells were activated with plate-coated anti-CD3 (10 μg/ml; BD Biosciences) and plate-coated anti-CD28 (10 μg/ml; BD Biosciences) antibodies. The Tc17 cell differentiation condition included rmIL-6 (10 ng/ml, PeproTech), rmTGF-β1 (2 ng/ml, PeproTech), rmIL-23 (25 ng/ml, PeproTech), rmIL1-β (5 ng/ml, PeproTech), and anti-IFN-γ (10 μg/ml, eBioscience). The Tc1 cell differentiation condition included rmIL-2 (5 ng/ml, PeproTech) and rm IL-12 (1 ng/ml, PeproTech). Different concentrations of Dleu2-17aa and scrPEP (Genscript) were added to the T cell culture from the beginning unless specified. Cells were cultured in U-bottom 96-well plates for 72 h and detected by flow cytometry.
For in vitro mouse T cell differentiation, after 72 h of induction, cells were activated for 4–6 h at 37 °C with the Cell Stimulation Cocktail (Thermo Fisher Scientific) if intracellular cytokine staining is needed, surface markers were stained in FACS buffer (PBS containing 2% FBS) for 30 min at 4 °C protected from light. Cells were then fixed and permeabilized with the Foxp3 Staining Buffer Set (eBioscience) or BD Cytofix/Cytoperm (BD Biosciences) and were stained with fluorescent antibodies. After washing, stained cells were assayed with an LSRFortessa (BD) flow cytometer, and data were analyzed with FlowJo software. Single-cell suspensions from EAE mouse spleen or CNS (day 16 post-immunization) were derived through mechanical separation and passage through a 70-μm filter (Fisherbrand) and analyzed using similar steps. For flow cytometry, antibodies against CD4 (clone GK1.5, 1:200), CD62L (clone MEL-14, 1:200), CD44 (clone IM7, 1:200), CD25 (clone PC61.5, 1:200), IL-17A (clone eBio17B7, 1:200), IFN-γ (clone XMG1.2, 1:200), FoxP3 (clone FJK-16s, 1:200), CD184 (clone 2B11/CXCR4, 1:100), CD152 (clone BNI3 1:100) and CD357 (clone DTA-1 1:100) were from eBioscience, CD3 (clone 145-2C11, 1:200) was from Biolegend and TGFBI (1:100) were from proteintech. For Dleu2-17aa expression detection, C57BL/6 mice were sacrificed, and their spleens were removed and gently dissociated into single-cell suspensions. An Fc blocker was used to reduce potential nonspecific antibody staining caused by IgG. Surface staining was performed using monoclonal antibodies against CD45 (clone 30-F11), CD3 (clone 145-2C11), CD19 (clone SJ25C1), CD11c (clone N418), MHCII (clone M5/114.15.2), F4/80 (clone BM8) all at a dilution of 1:200 (from Biolengend) followed by fixation and permeabilization of the nuclear membrane BD Cytofix/Cytoperm (BD Biosciences). […]

EL4 cells = test: Uptake of FAM-labeled peptide, flow cytometry; type: cell-based, mouse; settings: 6-FAM conjugate, 10 μM, n = 3
Procedure: (§1) Figure EV1 Dleu2-17aa enters CD4^+ T cells. (A) Representative histogram of Dleu2-17aa (10 μM) uptake in Jurkat and EL4 cell lines (n = 3). (B) Flow cytometry plots showing FAM-Dleu2-17aa^+ cells gated on CD4^+ T cells after treatment with increasing concentrations of FAM-Dleu2-17aa for 72 h (n = 3). (C) Histograms showing fluorescence intensity of FAM-Dleu2-17aa in CD4^+ T cells after treatment with increasing concentrations of FAM-Dleu2-17aa for 72 h. Gray filled: untreated control (n = 3). (D) Immunofluorescence imaging of FAM-Dleu2-17aa (10 μM) penetration by CD4^+ T cells isolated from WT mouse spleen (n = 3). Scale bars: 20 μm. Data information: n indicates biological replicate.
(§2) The mouse T cell line EL4 (TIB-39) cells and fibroblast cell line NIH/3T3 (CRL-1658) cells were cultured in high-glucose DMEM (Thermo Fisher Scientific) supplemented with 10% fetal bovine serum (FBS; Gibco). The human T cell line Jurkat (TIB-152) cells were cultured in RPMI 1640 medium (Thermo Fisher Scientific) supplemented with 10% FBS. All lines were maintained at 37 °C in a humidified 5% CO2 atmosphere.

CD4+ T cells [1] = test: Subcellular distribution by confocal immunofluorescence microscopy; type: cell-based; settings: 6-FAM conjugate, 10 μM, 4 h, mouse CD4+ T cells, n = 3
Procedure: as §1
Mouse CD4^+ T cells and EL4 cells were seeded on glass coverslips and incubated with FAM-Dleu2-17aa (10 µM) for 4 h. Cultured cells were washed three times in PBS and fixed with 4% PFA for 10 min at RT, then incubated in Blocking Buffer (1 × PBS/5% BSA/0.3% Triton X-100) for 1 h. After being washed in PBS and air drying, the coverslips were mounted with DAPI (1:1000; Thermo Fisher Scientific). Images were acquired with Leica TCS SP8 laser scanning confocal microscope.

spinal cord of EAE mice = test: Immunostaining of spinal cord sections of treated EAE mice; type: in vivo, mouse
Description: We then analyzed the T cell subsets in the CNS of WT and KO mice after EAE induction to clarify the inflammatory responses. […] To investigate if Dleu2-17aa affects CNS pathology in EAE, we performed immunostaining of spinal cord sections on EAE mice treated with Dleu2-17aa or scrPEP. […] Neuronal staining was also unaffected by Dleu2-17aa, indicating no significant alterations in CNS inflammation.
DAPI Dleu2-17aa CD4 DAPI Dleu2-17aa Iba1 DAPI Dleu2-17aa GFAP DAPI Dleu2-17aa NeuN
Appendix Fig S7: Effects of Dleu2-17aa on CNS pathology.
Representative immunofluorescence images showing Dleu2-17aa and CD4+ T cells (CD4),
microglia (Iba1), astrocyte (GFAP), and neuron (NeuN) staining in spinal cords of WT and KO EAE […]

Jurkat cells = test: Uptake of FAM-labeled peptide, flow cytometry; type: cell-based, human; settings: 6-FAM conjugate, 10 μM, n = 3
Procedure: as §1, §2

CD4+ T cells [2] = test: Uptake of FAM-labeled peptide, flow cytometry; type: cell-based; settings: 6-FAM conjugate, 72 h, mouse CD4+ T cells, n = 3
Procedure: as §1

subcellular distribution (CD4+ T cells [1])	colocalization with astrocytes (spinal cord of EAE mice)	colocalization with microglia (spinal cord of EAE mice)	colocalization with neurons (spinal cord of EAE mice)	presence in CD4+ T cells of spinal cord (spinal cord of EAE mice)	penetration of the peptide (CD4+ T cells [2]; 0-50 μM)	concentration of maximal penetration (CD4+ T cells [2]) [µM]	Sequence	significance of CD4+Foxp3+ (%) vs PBS (naive CD4+ T cells; two-tailed Student's t-test)	effect on mouse iTreg cell differentiation (naive CD4+ T cells; vs PBS)	penetrating ability (EL4 cells)	penetrating ability (Jurkat cells)
							MGRGALRRGRGRARRRGPRRGGTPG [DLEU2-25aa, 25 amino acid micropeptide of human DLEU2 transcripts]	✱✱ (**P<0.01)	exhibited similar features in promoting mouse iTreg cell differentiation		
predominantly localized in the nucleus	limited colocalization	some colocalization	minimal colocalization	expressed in all the CD4^+ T cell	dose-dependent penetration	25 to 50	MLGRRARRRGRGRRRPA [Dleu2-17aa]			capacity to penetrate into different types of T cells	capacity to penetrate into different types of T cells
